# Read-outs that look alike come from different tables or passages of the source.
# Columns and labels:
# Assay type in all cases: in vivo
# Scirpus species (SCPSS) = assay: Herbicidal mixtures for weed control in transplanted paddy rice (in-water application, visual % injury); conditions: SCPJU
# Summary of the method: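 Weeds sown in flooded puddled mineral soil (pH ~7.3–7.8, ~1.0% organic matter) and treated at second–third true leaf stage by injecting acetone/2.5% Agri-dex stock into the paddy water. A, C and D dosed as acid equivalent, partner herbicides as active ingredient. Injury scored visually after 3 weeks in greenhouse, 0–100% versus untreated plants.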
# [1] = test system: windgrass (Apera spica-venti L; APESV); assay: Postemergence herbicidal activity of mixtures in cereal crops (greenhouse, visual injury); conditions: for pest or weed control at 35 g/ha / pest or weed control at 70 g/ha / pest or weed control at 140 g/ha / pest or weed control at 8.75 g/ha / pest or weed control at 17.5 g/ha: Apera spica-venti, post-emergence, read-out: APESV Ob
# Summary of the method: (§1)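 Plants at second-third true leaf stage sprayed postemergence at 187 L/ha with compound and second cereal herbicide alone and combined; solvent blank controls. Visual injury scored 0-100% versus controls after 20-22 days; expected mixture effects by Colby's equation.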
# [2] = test system: wild oats (Avena fatua L; AVEFA); assay: as above
# Summary of the method: as §1
structure (smiles),measurement,setting,value
"COc1c(Cl)ccc(-c2cc(N)c(Cl)c(C(=O)O)n2)c1F [Compound A TEA, 4-amino-3-chloro-6-(4-chloro-2-fluoro-3-methoxyphenyl)pyridine-2-carboxylic acid]",% Injury Ob,Scirpus species (SCPSS); 17.5 g/ha alone,60%
same,% Injury Ob,Scirpus species (SCPSS); 35 g/ha alone,85%
same,% Injury Ob,Scirpus species (SCPSS); 70 g/ha alone,95%
same,pest or weed control at 35 g/ha,"[1]; 35 g/ha, Table 14",8%
same,pest or weed control at 35 g/ha,"[1]; 35 g/ha, Table 15",3%
same,pest or weed control at 35 g/ha,"[1]; 35 g/ha, Table 16",3%
same,pest or weed control at 35 g/ha,"[1]; 35 g/ha, Table 17",3%
same,pest or weed control at 35 g/ha,"[1]; 35 g/ha, Table 18",8%
same,pest or weed control at 70 g/ha,"[1]; 70 g/ha, Table 14",13%
same,pest or weed control at 70 g/ha,"[1]; 70 g/ha, Table 15",0%
same,pest or weed control at 70 g/ha,"[1]; 70 g/ha, Table 16",0%
same,pest or weed control at 70 g/ha,"[1]; 70 g/ha, Table 17",0%
same,pest or weed control at 70 g/ha,"[1]; 70 g/ha, Table 18",13%
same,pest or weed control at 140 g/ha,[1]; Table 14,15%
same,pest or weed control at 140 g/ha,[1]; Table 15,4%
same,pest or weed control at 140 g/ha,[1]; Table 16,4%
same,pest or weed control at 140 g/ha,[1]; Table 17,4%
same,pest or weed control at 140 g/ha,[1]; Table 18,15%
same,AVEFA Ob,"[2]; 35 g/ha, Table 14",0%
same,AVEFA Ob,"[2]; 35 g/ha, Table 17",0%
same,AVEFA Ob,"[2]; 35 g/ha, Table 18",0%
same,AVEFA Ob,"[2]; 70 g/ha, Table 14",0%
same,AVEFA Ob,"[2]; 70 g/ha, Table 17",3%
same,AVEFA Ob,"[2]; 70 g/ha, Table 18",0%
same,AVEFA Ob,"[2]; 140 g/ha, Table 14",0%
same,AVEFA Ob,"[2]; 140 g/ha, Table 17",8%
same,AVEFA Ob,"[2]; 140 g/ha, Table 18",0%
"COC(=O)c1nc(-c2ccc(Cl)c(OC)c2F)nc(N)c1Cl [Compound B Methyl, 6-amino-5-chloro-2-(4-chloro-2-fluoro-3-methoxyphenyl)pyrimidine-4-carboxylic acid methyl ester]",APESV Ob,[1]; 8.75 g/ha,0%
same,APESV Ob,[1]; 17.5 g/ha,0%
same,APESV Ob,[1]; 35 g/ha,0%
same,APESV Ob,[1]; 70 g/ha,0%
same,pest or weed control at 8.75 g/ha,"[1]; 8.75 g/ha, Table 20",0%
same,pest or weed control at 8.75 g/ha,"[1]; 8.75 g/ha, Table 22",0%
same,pest or weed control at 17.5 g/ha,"[1]; 17.5 g/ha, Table 20",0%
same,pest or weed control at 17.5 g/ha,"[1]; 17.5 g/ha, Table 22",0%
same,pest or weed control at 35 g/ha,"[1]; 35 g/ha, Table 20",0%
same,pest or weed control at 35 g/ha,"[1]; 35 g/ha, Table 22",0%
same,pest or weed control at 70 g/ha,"[1]; 70 g/ha, Table 20",0%
same,pest or weed control at 70 g/ha,"[1]; 70 g/ha, Table 22",0%
same,AVEFA Ob,[2]; 8.75 g/ha,0%
same,AVEFA Ob,"[2]; 8.75 g/ha, Table 20",0%
same,AVEFA Ob,[2]; 17.5 g/ha,0%
same,AVEFA Ob,"[2]; 17.5 g/ha, Table 20",0%
same,AVEFA Ob,[2]; 35 g/ha,0%
same,AVEFA Ob,"[2]; 35 g/ha, Table 20",0%
same,AVEFA Ob,[2]; 70 g/ha,0%
same,AVEFA Ob,"[2]; 70 g/ha, Table 20",0%
"COC(=O)c1nc(-c2ccc(Cl)c(OC)c2F)cc(N)c1Cl [Compound A Methyl, 4-amino-3-chloro-6-(4-chloro-2-fluoro-3-methoxyphenyl)pyridine-2-carboxylic acid methyl ester]",% Injury Ob,Scirpus species (SCPSS); 17.5 g/ha alone,90%
same,pest or weed control at 17.5 g/ha,"[1]; 17.5 g/ha, Table 1",20%
same,pest or weed control at 17.5 g/ha,"[1]; 17.5 g/ha, Table 4",0%
same,pest or weed control at 17.5 g/ha,"[1]; 17.5 g/ha, Table 5",0%
same,pest or weed control at 35 g/ha,"[1]; 35 g/ha, Table 1",20%
same,pest or weed control at 35 g/ha,"[1]; 35 g/ha, Table 3",10%
same,pest or weed control at 35 g/ha,"[1]; 35 g/ha, Table 4",10%
same,pest or weed control at 35 g/ha,"[1]; 35 g/ha, Table 5",10%
same,pest or weed control at 70 g/ha,"[1]; 70 g/ha, Table 1",30%
same,pest or weed control at 70 g/ha,"[1]; 70 g/ha, Table 3",10%
same,pest or weed control at 70 g/ha,"[1]; 70 g/ha, Table 4",10%
same,pest or weed control at 70 g/ha,"[1]; 70 g/ha, Table 5",10%
same,AVEFA Ob,"[2]; 17.5 g/ha, Table 1",30%
same,AVEFA Ob,"[2]; 17.5 g/ha, Table 4",0%
same,AVEFA Ob,"[2]; 17.5 g/ha, Table 5",0%
same,AVEFA Ob,"[2]; 35 g/ha, Table 1",30%
same,AVEFA Ob,"[2]; 35 g/ha, Table 3",40%
same,AVEFA Ob,"[2]; 35 g/ha, Table 4",40%
same,AVEFA Ob,"[2]; 35 g/ha, Table 5",40%
same,AVEFA Ob,"[2]; 70 g/ha, Table 1",35%
same,AVEFA Ob,"[2]; 70 g/ha, Table 3",45%
same,AVEFA Ob,"[2]; 70 g/ha, Table 4",45%
same,AVEFA Ob,"[2]; 70 g/ha, Table 5",45%

# Source: patent US10556865B2, “Synergistic herbicidal composition containing certain pyridine or pyrimidine carboxylic acids and certain cereal and rice herbicides” (Dow AgroSciences, LLC, priority 2007, dated 2020)
